Assay results published in ChEMBL document CHEMBL5241067, “An insight in anti-malarial potential of indole scaffold: A review” (Eur J Med Chem, 2021).
≈ marks a conversion by molar mass, not a printed value.

How the values were obtained:
Plasmodium falciparum [1] = experiment: Antimalarial activity against chloroquine-resistant Plasmodium falciparum W2 assessed as growth inhibition; format: functional, organism-based
Plasmodium falciparum [2] = experiment: Antimalarial activity against […] Plasmodium falciparum D6 assessed as growth inhibition; format: functional, organism-based
Plasmodium falciparum [3] = experiment: Antiplasmodial activity against multidrug resistant Plasmodium falciparum K1 assessed as growth inhibition; format: functional, organism-based
Plasmodium berghei = experiment: In vivo antimalarial activity against Plasmodium berghei infected in mouse assessed as supression of parasitemia at 20 to 25 mg/kg, po measured for 4 days; format: functional; settings: dose 20-25 mg/kg, time 4 day
[4] = Cytotoxicity against HEK293 cells; format: toxicity, cell-based; settings: human
Plasmodium falciparum [5] = experiment: Antiplasmodial activity against Plasmodium falciparum NF54 assessed as growth inhibition; format: functional, organism-based
Plasmodium falciparum [6] = experiment: Antiplasmodial activity against Plasmodium falciparum DD2 assessed as growth inhibition; format: functional, organism-based
Plasmodium falciparum [7] = experiment: Antiplasmodial activity against chloroquine-resistant Plasmodium falciparum DD2 assessed as growth inhibition; format: functional, organism-based
Plasmodium falciparum [8] = experiment: Antiplasmodial activity against chloroquine, pyrimethamine and mefloquine-resistant Plasmodium falciparum assessed as growth inhibition; format: functional, organism-based
Plasmodium falciparum [9] = experiment: Antiplasmodial activity against multidrug-resistant Plasmodium falciparum assessed as growth inhibition; format: functional
Plasmodium falciparum [10] = experiment: Antiplasmodial activity against Plasmodium falciparum; format: functional, organism-based
KB = experiment: Cytotoxicity against human KB cells; format: functional; settings: read-out: ED50 (the source's name)

Row | SMILES | IC50 (Plasmodium falciparum [1]) [nM] | IC50 (Plasmodium falciparum [2]) [µM] | IC50 (Plasmodium falciparum [5]) [nM] | other results
1 | Cc1cc(-c2cc(-c3ccccc3)nc(-c3c[nH]c4ccccc34)c2C#N)cc(C)c1C | 2700 | 1.6 | – | –
2 | Cn1c2c3cc(Br)ccc3nc-2cc2cc(Br)ccc21 | – | – | – | IC50 (Plasmodium falciparum [3]): 50 nM; Activity (Plasmodium berghei): 89%
3 | CC1(C)[C@H](Cc2[nH]c3ccccc3c2CC[N+](C)(C)O)O[C@]23OC[C@H](O)[C@H]2OC(=O)[C@]13O | – | – | – | IC50 [4]: 80 nM
4 | O=C1c2cc(Br)ccc2-n2c1nc1ccc(Cl)cc1c2=O | – | – | 36 | IC50 (Plasmodium falciparum [6]): 123 nM
5 | Cc1cc(-c2cc(-c3ccc(F)cc3)nc(-c3c[nH]c4ccccc34)c2C#N)cc(C)c1C | 2960 | 5.4 | – | –
6 | N#Cc1c(-c2ccc(F)cc2)cc(-c2ccccc2)nc1-c1c[nH]c2ccccc12 | 2990 | 1.47 | – | –
7 | O=C1c2cc(F)ccc2-n2c1nc1ccccc1c2=O | – | – | 57 | IC50 (Plasmodium falciparum [6]): 100 nM
8 | O=C1c2cc([N+](=O)[O-])ccc2-n2c1nc1cc(Cl)ccc1c2=O | – | – | 33 | IC50 (Plasmodium falciparum [6]): 31 nM
9 | O=C1c2ccccc2-n2c1nc1ccccc1c2=O [TRYPTANTHRIN] | – | – | 288 | IC50 (Plasmodium falciparum [7]): 114 nM; IC50 (Plasmodium falciparum [8]): 0.069 µg/mL (≈ 0.278 µM); Activity (Plasmodium falciparum [9]): 100 ng/mL
10 | N#Cc1c(-c2ccc(F)c(F)c2)cc(-c2ccc(Br)cc2)nc1-c1c[nH]c2ccccc12 | 4770 | 6.6 | – | –
11 | O=C1NCCc2c[nH]c3ccc4c(c23)[C@@H]1[C@H](c1ccc2c(c1)OCO2)O4 | – | – | – | IC50 (Plasmodium falciparum [10]): 3.4 µM; EC50 (KB): 23.9 µM
12 | O=C1c2cc(Br)ccc2-n2c1nc1cc(Cl)ccc1c2=O | – | – | 36 | IC50 (Plasmodium falciparum [6]): 238 nM
13 | N#Cc1c(-c2ccc(F)c(F)c2)cc(-c2ccccc2)nc1-c1c[nH]c2ccccc12 | 1160 | 1.56 | – | –
14 | N#Cc1c(-c2ccc(F)c(F)c2)cc(-c2ccc(F)cc2)nc1-c1c[nH]c2ccccc12 | 3820 | 6.78 | – | –
